{
  "source": "ChEMBL document CHEMBL1132523",
  "about": "“Preventive effect of sesquiterpenes from bay leaf on blood ethanol elevation in ethanol-loaded rat: structure requirement and suppression of gastric emptying” (1999)",
  "key": {"Rattus norvegicus [1]": {"tested_on": "Rattus norvegicus", "test": "Effect of compound (50 mg/kg) on Blood Ethanol level in Ethanol loaded rats after 1 hr", "type": "functional"}, "Rattus norvegicus [2]": {"tested_on": "Rattus norvegicus", "test": "Effect of compound (50 mg/kg) on Blood Ethanol level in Ethanol loaded rats after 2 hr", "type": "functional"}, "Rattus norvegicus [3]": {"tested_on": "Rattus norvegicus", "test": "Effect of compound (50 mg/kg) on Blood Ethanol level in Ethanol loaded rats after 30 minutes", "type": "functional"}, "Rattus norvegicus [4]": {"tested_on": "Rattus norvegicus", "test": "Effect of compound (25 mg/kg) on Blood Ethanol level in Ethanol loaded rats after 1 hr", "type": "functional"}, "Rattus norvegicus [5]": {"tested_on": "Rattus norvegicus", "test": "Effect of compound (25 mg/kg) on Blood Ethanol level in Ethanol loaded rats after 2 hr", "type": "functional"}, "Rattus norvegicus [6]": {"tested_on": "Rattus norvegicus", "test": "Effect of compound (25 mg/kg) on Blood Ethanol level in Ethanol loaded rats after 30 minutes", "type": "functional"}, "Rattus norvegicus [7]": {"tested_on": "Rattus norvegicus", "test": "Effect of compound (50 mg/kg) on Gastric emptying in Ethanol loaded rats after 30 minutes", "type": "functional, Stomach"}, "Rattus norvegicus [8]": {"tested_on": "Rattus norvegicus", "test": "Effect of compound (50 mg/kg) on Gastric emptying time in Ethanol loaded rats after 30 minutes", "type": "functional, Stomach"}, "Rattus norvegicus [9]": {"tested_on": "Rattus norvegicus", "test": "Effect of compound (25 mg/kg) on Gastric emptying in Ethanol loaded rats after 30 minutes", "type": "functional, Stomach"}, "Rattus norvegicus [10]": {"tested_on": "Rattus norvegicus", "test": "Effect of compound (25 mg/kg) on Gastric emptying time in Ethanol loaded rats after 30 minutes", "type": "functional, Stomach"}, "Rattus norvegicus [11]": {"tested_on": "Rattus norvegicus", "test": "Effect of compound (25 mg/kg) on Serum glucose level in glucose loaded rats after 1 hr", "type": "functional, organism-based"}, "Rattus norvegicus [12]": {"tested_on": "Rattus norvegicus", "test": "Effect of compound (25 mg/kg) on Serum glucose level in glucose loaded rats after 2 hr", "type": "functional, organism-based"}, "Rattus norvegicus [13]": {"tested_on": "Rattus norvegicus", "test": "Effect of compound (25 mg/kg) on Serum glucose level in glucose loaded rats after 30 minutes", "type": "functional, organism-based"}, "Rattus norvegicus [14]": {"tested_on": "Rattus norvegicus", "test": "Effect of compound (50 mg/kg) on Serum glucose level in glucose loaded rats after 1 hr", "type": "functional, organism-based"}, "Rattus norvegicus [15]": {"tested_on": "Rattus norvegicus", "test": "Effect of compound (50 mg/kg) on Serum glucose level in glucose loaded rats after 2 hr", "type": "functional, organism-based"}, "Rattus norvegicus [16]": {"tested_on": "Rattus norvegicus", "test": "Effect of compound (50 mg/kg) on Serum glucose level in glucose loaded rats after 30 minutes", "type": "functional, organism-based"}, "Rattus norvegicus [17]": {"tested_on": "Rattus norvegicus", "test": "Effect of compound (12.5 mg/kg) on Blood Ethanol level in Ethanol loaded rats after 1 hr", "type": "functional"}, "Rattus norvegicus [18]": {"tested_on": "Rattus norvegicus", "test": "Effect of compound (12.5 mg/kg) on Blood Ethanol level in Ethanol loaded rats after 2 hr", "type": "functional"}, "Rattus norvegicus [19]": {"tested_on": "Rattus norvegicus", "test": "Effect of compound (12.5 mg/kg) on Blood Ethanol level in Ethanol loaded rats after 30 minutes", "type": "functional"}, "Rattus norvegicus [20]": {"tested_on": "Rattus norvegicus", "test": "Effect of compound (12.5 mg/kg) on Gastric emptying in Ethanol loaded rats after 30 minutes", "type": "functional, Stomach"}},
  "note": "Several values for one entry are separate records, joined by “and”; a condition that tells them apart may be missing. Equal values may be shown once.",
  "data": [
    {"molecule": "C=C1CCC[C@]2(C)CC[C@@H](C(C)(C)O)C[C@@H]12", "note": "[BETA-EUDESMOL]", "values": [
      {"measurement": "Activity", "setting": "Rattus norvegicus [1]", "result": 0.73, "unit": "mg/mL"},
      {"measurement": "Blood ethanol level", "setting": "Rattus norvegicus [2]", "result": 0.2, "unit": "mg/mL"},
      {"measurement": "Blood ethanol concentration", "setting": "Rattus norvegicus [3]", "result": 0.77, "unit": "mg/mL"},
      {"measurement": "Activity", "setting": "Rattus norvegicus [4]", "result": 0.7, "unit": "mg/mL"},
      {"measurement": "Activity", "setting": "Rattus norvegicus [5]", "result": 0.2, "unit": "mg/mL"},
      {"measurement": "Blood ethanol concentration", "setting": "Rattus norvegicus [6]", "result": 0.79, "unit": "mg/mL"}
    ]},
    {"molecule": "C=C1C(=O)O[C@@H]2/C=C(\\C)CC/C=C(\\C)CC[C@@H]12", "note": "[COSTUNOLIDE]", "values": [
      {"measurement": "Activity", "setting": "Rattus norvegicus [1]", "result": 0.21, "unit": "mg/mL"},
      {"measurement": "Blood ethanol level", "setting": "Rattus norvegicus [2]", "result": 0.19, "unit": "mg/mL"},
      {"measurement": "Blood ethanol concentration", "setting": "Rattus norvegicus [3]", "result": 0.18, "unit": "mg/mL"},
      {"measurement": "Activity", "setting": "Rattus norvegicus [4]", "result": 0.2, "unit": "mg/mL"},
      {"measurement": "Activity", "setting": "Rattus norvegicus [5]", "result": 0.1, "unit": "mg/mL"},
      {"measurement": "Blood ethanol concentration", "setting": "Rattus norvegicus [6]", "result": 0.23, "unit": "mg/mL"},
      {"measurement": "Inhibition", "setting": "Rattus norvegicus [7]", "result": 48.2, "unit": "%"},
      {"measurement": "Inhibition", "setting": "Rattus norvegicus [8]", "result": 42.1, "unit": "%"},
      {"measurement": "Inhibition", "setting": "Rattus norvegicus [9]", "result": 62.1, "unit": "%"},
      {"measurement": "Inhibition", "setting": "Rattus norvegicus [10]", "result": 25.5, "unit": "%"},
      {"measurement": "Serum glucose", "setting": "Rattus norvegicus [11]", "result": 151, "unit": "mg/dL"},
      {"measurement": "Serum glucose", "setting": "Rattus norvegicus [12]", "result": 117, "unit": "mg/dL"},
      {"measurement": "Serum glucose", "setting": "Rattus norvegicus [13]", "result": 179, "unit": "mg/dL"},
      {"measurement": "Serum glucose", "setting": "Rattus norvegicus [14]", "result": 150, "unit": "mg/dL"},
      {"measurement": "Serum glucose", "setting": "Rattus norvegicus [15]", "result": 112, "unit": "mg/dL"},
      {"measurement": "Serum glucose", "setting": "Rattus norvegicus [16]", "result": 171, "unit": "mg/dL"}
    ]},
    {"molecule": "C=C1CCOC1=O", "note": "[TULIPALINE A]", "values": [
      {"measurement": "Activity", "setting": "Rattus norvegicus [1]", "result": 0.1, "unit": "mg/mL"},
      {"measurement": "Blood ethanol level", "setting": "Rattus norvegicus [2]", "result": 0.01, "unit": "mg/mL"},
      {"measurement": "Blood ethanol concentration", "setting": "Rattus norvegicus [3]", "result": 0.04, "unit": "mg/mL"},
      {"measurement": "Activity", "setting": "Rattus norvegicus [17]", "result": 0.7, "unit": "mg/mL"},
      {"measurement": "Activity", "setting": "Rattus norvegicus [18]", "result": 0.39, "unit": "mg/mL"},
      {"measurement": "Activity", "setting": "Rattus norvegicus [19]", "result": 0.32, "unit": "mg/mL"},
      {"measurement": "Activity", "setting": "Rattus norvegicus [4]", "result": 0.17, "unit": "mg/mL"},
      {"measurement": "Activity", "setting": "Rattus norvegicus [5]", "result": 0.01, "unit": "mg/mL"},
      {"measurement": "Blood ethanol concentration", "setting": "Rattus norvegicus [6]", "result": 0.09, "unit": "mg/mL"},
      {"measurement": "Inhibition", "setting": "Rattus norvegicus [20]", "result": "47.9% and 38.8%"},
      {"measurement": "Inhibition", "setting": "Rattus norvegicus [9]", "result": "33.5% and 57.2%"}
    ]},
    {"molecule": "C=C1C(=O)O[C@@H]2[C@H]3C(C)=CC[C@@H](O)[C@]3(C)CC[C@@H]12", "note": "[SANTAMARIN]", "values": [
      {"measurement": "Activity", "setting": "Rattus norvegicus [1]", "result": 0.21, "unit": "mg/mL"},
      {"measurement": "Blood ethanol level", "setting": "Rattus norvegicus [2]", "result": 0.18, "unit": "mg/mL"},
      {"measurement": "Blood ethanol concentration", "setting": "Rattus norvegicus [3]", "result": 0.2, "unit": "mg/mL"},
      {"measurement": "Activity", "setting": "Rattus norvegicus [4]", "result": 0.43, "unit": "mg/mL"},
      {"measurement": "Activity", "setting": "Rattus norvegicus [5]", "result": 0.2, "unit": "mg/mL"},
      {"measurement": "Blood ethanol concentration", "setting": "Rattus norvegicus [6]", "result": 0.4, "unit": "mg/mL"}
    ]},
    {"molecule": "C=C1CC[C@H]2C(=C)CC[C@H]3C(=C)C(=O)O[C@@H]3[C@@H]12", "note": "[DEHYDROCOSTUSLACTONE]", "values": [
      {"measurement": "Activity", "setting": "Rattus norvegicus [1]", "result": 0.23, "unit": "mg/mL"},
      {"measurement": "Blood ethanol level", "setting": "Rattus norvegicus [2]", "result": 0.19, "unit": "mg/mL"},
      {"measurement": "Blood ethanol concentration", "setting": "Rattus norvegicus [3]", "result": 0.2, "unit": "mg/mL"},
      {"measurement": "Activity", "setting": "Rattus norvegicus [4]", "result": 0.4, "unit": "mg/mL"},
      {"measurement": "Activity", "setting": "Rattus norvegicus [5]", "result": 0.2, "unit": "mg/mL"},
      {"measurement": "Blood ethanol concentration", "setting": "Rattus norvegicus [6]", "result": 0.57, "unit": "mg/mL"}
    ]}
  ]
}
